Experiment [1] relates to TGF-beta-induced phosphorylation of Smad2 (Ser465/467) and Smad3 (Ser423/425) in Mv1-Lu cells. Nature of the experiment: Inhibition of Smad2/3 phosphorylation in Mv1Lu cells (PathScan Phospho-Smad2 ELISA). Format: cell-based, mink Mustela vison. To be noted: Neogale vison, read-out: TβR activity (Example 51). Here is the method:
Inhibition of Smad2/3 Phosphorylation in Mv1 Lu Cells by TGF-Beta Receptor I Kinase Inhibitors
This assay was used to determine the inhibitory potency of compounds on TGF-beta-induced phosphorylation of Smad2 (Ser465/467) and Smad3 (Ser423/425). Mv1-Lu cells (lung epithelial cell line from mink Mustela vison; ATCC number: CCL-64) were seeded in DMEM (Invitrogen) supplemented with 10% fetal bovine serum (Pan Biotech) at a defined cell density in 24-well or 96-well plates (24-well plate: 1.5×10^5 cells per well; 96-well plate: 4×10^4 cells per well). Cell cultures were incubated in DMEM at 37° C. and 10% CO2. On the next day, the medium was replaced and cells were serum-starved for 16-20 hours. The following day, serial dilutions of compounds were added to the wells, pre-incubated for 1.5 hrs before recombinant TGF-beta 1 ligand (final concentration 5 ng/ml; R&D systems) was added. After one hour of ligand stimulation, lysates were prepared and analyzed using an enzyme-linked immunosorbent assay kit (PathScan Phospho-Smad2 Kit, Cell Signaling Technologies). The ELISA detects phosphorylated Smad2 as well as phosphorylated Smad3 with the phospho-specific antibody. TGF-beta stimulated cells and unstimulated cells served as positive and negative controls (100% and background control). The concentration of the vehicle DMSO was kept constant at 0.2% (v/v) in all wells. Dose-response relationships were fitted using curve fitting algorithms of the RS1 statistics software package (Brooks Automation Inc. RS/1- Statistical Tools Handbook. Release 6.2) to determine the concentration at which half-maximal inhibition (IC50) of Smad2/3 phosphorylation was achieved.
Background: An ELISA detects its analyte on a solid surface through an enzyme-linked reagent.

Experiment [2] concerns the target T1, GST-ALK5 (TGF-beta receptor kinase) (Homo sapiens, UniProt P36897).
T1 sequence (P36897 34-503): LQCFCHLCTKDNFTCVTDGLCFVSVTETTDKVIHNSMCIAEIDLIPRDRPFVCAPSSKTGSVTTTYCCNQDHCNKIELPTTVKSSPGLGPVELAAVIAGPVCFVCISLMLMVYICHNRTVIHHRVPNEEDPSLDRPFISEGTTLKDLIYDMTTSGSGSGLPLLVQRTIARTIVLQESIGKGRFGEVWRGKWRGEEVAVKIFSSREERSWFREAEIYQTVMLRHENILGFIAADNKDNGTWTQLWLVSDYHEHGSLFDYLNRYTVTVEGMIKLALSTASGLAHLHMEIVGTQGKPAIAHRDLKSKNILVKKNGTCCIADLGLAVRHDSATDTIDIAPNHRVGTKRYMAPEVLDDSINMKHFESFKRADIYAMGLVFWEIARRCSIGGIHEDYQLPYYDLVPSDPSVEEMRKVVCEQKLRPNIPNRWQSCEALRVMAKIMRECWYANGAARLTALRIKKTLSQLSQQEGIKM
Nature of the experiment: In-vitro (enzyme) kinase flashplate assay: GST-ALK5 phosphorylation of GST-SMAD2 with 33P-ATP. Format: biochemical. As to conditions: 384-well flashplate kinase assay, GST-ALK5 / GST-SMAD2, 33P-ATP, 30° C., 45 min; read-out: TβR activity (Example 50). On the procedure:
In-vitro (Enzyme) Assay for Determination of the Efficacy of Inhibitors of the Inhibition of TGF-Beta-Mediated Effects
The kinase assay was carried out as 384-well flashplate assay. 31.2 nM of GST-ALK5, 439 nM of GST-SMAD2 and 3 mM of ATP (with 0.3 μCi of ^33P-ATP/well) were incubated in a total volume of 35 μl (20 mM of HEPES, 10 mM of MgCl2, 5 mM of MnCl2, 1 mM of DTT, 0.1% of BSA, pH 7.4) without or with test substance (5-10 concentrations) at 30° C. for 45 min. The reaction was stopped using 25 μl of 200 mM EDTA solution, filtered with suction at room temperature after 30 min, and the wells were washed with 3 times 100 μl of 0.9% NaCl solution. Radioactivity was measured in the TopCount. The IC50 values were calculated using RS1.

[3] abbreviates: Mv1-Lu cells, TGF-beta 1 5 ng/ml, Phospho-Smad2/3 ELISA.

Structures can show the parent of a compound that is named as a salt. Where two headings read alike, the source gives them in different places. Where only a bound is given, the exact number is not on record here.

`Nc1nccc2c(-c3cc(-c4ccccc4Cl)nc4ncccc34)nccc12` [Compound 90, 5-[2-(2-Chloro-phenyl)-[1,8]naphthyridin-4-yl]-[2,6]naphthyridin-1-ylamine]: the IC50 in experiment [1] (setting [3]) was 1000 to 10000 nM; in experiment [2] it was less than 1000 nM.
Take `Cc1ccn(-c2cc(-c3c[nH]c4cnccc34)c3cccnc3n2)n1` [Compound 118, 2-(3-Methyl-pyrazol-1-yl)-4-(1H-pyrrolo[2,3-c]pyridin-3-yl)-[1,8]naphthyridine]: the IC50 in experiment [1] (setting [3]) and in experiment [2] was less than 1000 nM throughout.
On to `CCN(CC)CCNc1ccc(-c2cc(-c3cc(Cl)ccc3F)nc3ncccc23)c2ccncc12` [Compound 92, N′-{5-[2-(5-Chloro-2-fluoro-phenyl)-[1,8]naphthyridin-4-yl]-isoquinolin-8-yl}-N,N-diethyl-ethane-1,2-diamine], for which the IC50 in experiment [1] (setting [3]) and in experiment [2] was less than 1000 nM in each case.
As for `Nc1nccc2c(-c3cc(-c4cc(Cl)ccc4F)nc4ncccc34)nccc12` [Compound 11, 5-[2-(5-Chloro-2-fluoro-phenyl)-[1,8]naphthyridin-4-yl]-[2,6]naphthyridin-1-ylamine], the IC50 in experiment [1] (setting [3]) and in experiment [2] was less than 1000 nM in each case.
Take `Fc1ccccc1-c1cc(-c2ccnc3cnccc23)c2cccnc2n1` [Compound 111, 4-[2-(2-Fluoro-phenyl)-[1,8]naphthyridin-4-yl]-[1,7]naphthyridine]: the IC50 in experiment [1] (setting [3]) was more than 10000 nM; in experiment [2], less than 1000 nM.
In the case of `Fc1ccc(Cl)cc1-c1cc(-c2cccc3cnccc23)c2cccnc2n1` [Compound 2, 2-(5-Chloro-2-fluoro-phenyl)-4-isoquinolin-5-yl-[1,8]naphthyridine], the IC50 in experiment [1] (setting [3]) and in experiment [2] was less than 1000 nM in each case.
Regarding `Cn1cc(-c2cc(-c3cc(Cl)ccc3F)nc3ncccc23)c2ccncc2c1=O` [Compound 74, 4-[2-(5-Chloro-2-fluoro-phenyl)-[1,8]naphthyridin-4-yl]-2-methyl-2H-[2,7]naphthyridin-1-one], the IC50 in experiment [1] (setting [3]) and in experiment [2] was less than 1000 nM each time.
For `Fc1ccccc1-c1cc(-c2nccc3cnccc23)c2cccnc2n1` [Compound 23, 2-(2-Fluoro-phenyl)-4-[2,6]naphthyridin-1-yl-[1,8]naphthyridine], the IC50 in experiment [1] (setting [3]) and in experiment [2] was 1000 to 10000 nM throughout.
Consider `O=c1c2cnccc2c(-c2cc(-c3ccccc3F)nc3ncccc23)cn1CCO` [Compound 67, 4-[2-(2-Fluoro-phenyl)-[1,8]naphthyridin-4-yl]-2-(2-hydroxy-ethyl)-2H-[2,7]naphthyridin-1-one], for which the IC50 in experiment [1] (setting [3]) was 1000 to 10000 nM; in experiment [2], less than 1000 nM.
The like results for `COc1ccc(-c2cc(-c3cc(F)ccc3F)nc3ncccc23)c2ccncc12` [Compound 99, 2-(2,5-Difluoro-phenyl)-4-(8-methoxy-isoquinolin-5-yl)-[1,8]naphthyridine] were, in that order, less than 1000 nM and less than 1000 nM.
On to `Nc1cc2cnccc2c(-c2cc(-c3ccccc3F)nc3ncccc23)n1` [Compound 66, 1-[2-(2-Fluoro-phenyl)-[1,8]naphthyridin-4-yl]-[2,6]naphthyridin-3-ylamine], for which the IC50 in experiment [1] (setting [3]) and in experiment [2] was less than 1000 nM throughout.
`CN(C)CC(=O)Nc1nccc2c(-c3cc(-c4ccccc4F)nc4ncccc34)nccc12` [Compound 71, 2-Dimethylamino-N-{5-[2-(2-fluoro-phenyl)-[1,8]naphthyridin-4-yl]-[2,6]naphthyridin-1-yl}-acetamide]: the IC50 in experiment [1] (setting [3]) and in experiment [2] was 1000 to 10000 nM throughout.
On to `CC(=O)Nc1ccc2cnccc2c1-c1cc(-c2ccccc2F)nc2ncccc12` [Compound 85, N-{5-[2-(2-Fluoro-phenyl)-[1,8]naphthyridin-4-yl]-isoquinolin-6-yl}-acetamide], for which the IC50 in experiment [1] (setting [3]) is more than 10000 nM; in experiment [2] it was 1000 to 10000 nM.
For `Nc1nccc2c(-c3cc(-c4cc(Cl)ccc4F)nc4ncccc34)coc12` [Compound 13, 3-[2-(5-Chloro-2-fluoro-phenyl)-[1,8]naphthyridin-4-yl]-furo[2,3-c]pyridin-7-ylamine], the IC50 in experiment [1] (setting [3]) and in experiment [2] was less than 1000 nM in each case.
`Nc1nccc2c(-c3cc(-c4c(F)cccc4F)nc4ncccc34)nccc12` [Compound 109, 5-[2-(2,6-Difluoro-phenyl)-[1,8]naphthyridin-4-yl]-[2,6]naphthyridin-1-ylamine]: the values for the IC50 in experiment [1] (setting [3]) and in experiment [2] were more than 10000 nM and less than 1000 nM, respectively.
The matching figures for `Fc1ccc(C(F)(F)F)cc1-c1cc(-c2c[nH]c3cnccc23)c2cccnc2n1` [Compound 3, 2-(2-Fluoro-5-trifluoromethyl-phenyl)-4-(1H-pyrrolo[2,3-c]pyridin-3-yl)-[1,8]naphthyridine]: less than 1000 nM and less than 1000 nM.
With `O=c1c2cnccc2c(-c2cc(-c3cc(F)ccc3F)nc3ncccc23)cn1CCO` [Compound 72, 4-[2-(2,5-Difluoro-phenyl)-[1,8]naphthyridin-4-yl]-2-(2-hydroxy-ethyl)-2H-[2,7]naphthyridin-1-one], the IC50 in experiment [1] (setting [3]) and in experiment [2] was less than 1000 nM throughout.
Take `Nc1ccc(-c2cc(-c3cc(Cl)ccc3F)nc3ncccc23)c2ccncc12` [Compound 22, 5-[2-(5-Chloro-2-fluoro-phenyl)-[1,8]naphthyridin-4-yl]-isoquinolin-8-ylamine hydrochloride]: the IC50 in experiment [1] and in experiment [2] was less than 1000 nM each time.
Turning to `Nc1nccc2c(-c3cc(-c4ccccc4F)nc4ncccc34)ccc(OCCO)c12` [Compound 79, 2-{1-Amino-5-[2-(2-fluoro-phenyl)-[1,8]naphthyridin-4-yl]-isoquinolin-8-yloxy}-ethanol], the IC50 in experiment [1] (setting [3]) and in experiment [2] was less than 1000 nM each time.
As for `Cn1cc(-c2ccc(-c3cc(-c4ccccc4F)nc4ncccc34)c3ccncc23)cn1` [Compound 65, 2-(2-Fluoro-phenyl)-4-[8-(1-methyl-1H-pyrazol-4-yl)-isoquinolin-5-yl]-[1,8]naphthyridine], the IC50 in experiment [1] (setting [3]) and in experiment [2] was less than 1000 nM in each case.
Consider `COc1nccc2c(-c3cc(-c4ccccc4F)nc4ncccc34)nccc12` [Compound 40, 2-(2-Fluoro-phenyl)-4-(5-methoxy-[2,6]naphthyridin-1-yl)-[1,8]naphthyridine], for which the IC50 in experiment [1] (setting [3]) and in experiment [2] was more than 10000 nM each time.
Consider `c1coc(-c2cc(-c3c[nH]c4cnccc34)c3cccnc3n2)c1` [Compound 101, 2-Furan-2-yl-4-(1H-pyrrolo[2,3-c]pyridin-3-yl)-[1,8]naphthyridine], for which the IC50 in experiment [1] (setting [3]) and in experiment [2] was less than 1000 nM throughout.
On to `Nc1nccc2c(-c3cc(-c4ccccc4F)nc4ncccc34)ccnc12` [Compound 113, 4-[2-(2-Fluoro-phenyl)-[1,8]naphthyridin-4-yl]-[1,7]naphthyridin-8-ylamine], for which the IC50 in experiment [1] (setting [3]) and in experiment [2] was less than 1000 nM each time.
Regarding `Fc1ccc(Cl)cc1-c1cc(-c2coc3cnccc23)c2cccnc2n1` [Compound 12, 2-(5-Chloro-2-fluoro-phenyl)-4-furo[2,3-c]pyridin-3-yl-[1,8]naphthyridine], the IC50 in experiment [1] (setting [3]) and in experiment [2] was less than 1000 nM in each case.
Consider `Nc1nccc2c(-c3cc(-c4cc(C(F)(F)F)ccc4F)nc4ncccc34)cccc12` [Compound 8, 5-[2-(2-Fluoro-5-trifluoromethyl-phenyl)-[1,8]naphthyridin-4-yl]-isoquinolin-1-ylamine], for which the IC50 in experiment [1] (setting [3]) and in experiment [2] was less than 1000 nM each time.

These data come from patent US8791113B2, “2,4-diaryl-substituted [1,8] naphthyridines as kinase inhibitors for use against cancer” (Merck Patent GmbH, priority 2010, dated 2014).
